Results on nine compounds are retold here after article PMC9063426, “MAP kinases differentially bind and phosphorylate NOS3 via two unique NOS3 sites” (FEBS Open Bio, 2022).

“Also recorded” adds a separate entry of the source. Where a SMILES comes first, the peptide text is derived from it. Where no end group is shown, it is not given here.

In one test the target is T1, p38α (Homo sapiens, UniProt Q16539).
T1 construct: His; made in house; host or cells: E. coli BL21(DE3) pLysS
The test can be described thus: BLI binding of biotinylated NOS3 peptides to p38α. The conditions noted are these: for koff / kon: BLI, inactive p38α, 25 °C, PBS buffer, global one-state fit; for binding of phosphopeptide: BLI sensorgram, kinase analyte p38α. Here is the method: (§1) Biolayer interferometry (BLI) experiments were performed on a FortéBio (Menlo Park, CA) Octet QK biosensor using streptavidin (SA) sensors. Assays were performed in opaque 96‐well microplates at 25 °C. All volumes were 200 μL. Active GST‐JNK1α1 (SignalChem) was biotinylated by amine crosslinking to NHS‐LC‐LC‐biotin (succinimidyl‐6‐[biotinamido]‐6‐hexanamidohexanoate) (Thermo Fisher, Waltham, MA, USA). Reactions were performed at a 5 : 1 molar ratio of biotin to protein for 30 min at room temperature followed by separation of protein from free biotin by passage over a desalting column. Biotinylated JNK1α1 was loaded onto sensors for 300 s, which was sufficient to saturate them. Baseline was established by dipping sensors into binding buffer (50 mM Tris, pH 7.4, 10 mM NaCl, 10% glycerol, 0.01% Tween‐20) prior to moving sensors to wells containing varying concentrations of serially diluted NOS3 in the same buffer. Association was measured for 300 s, after which sensors were moved to wells containing buffer only and dissociation was monitored for another 300 s. Raw data were normalized for baseline drift by subtracting signal from a ligand‐saturated sensor exposed to buffer only throughout the experiment and then iteratively fit to a one‐state global association‐then‐dissociation binding model using GRAPHPAD Prism. Total binding was used for analysis as nonspecific binding measured by exposing sensors without ligand to analyte was negligible at all NOS3 concentrations used; that is, total binding was effectively specific binding due to very low nonspecific binding.
(§2) For peptide binding experiments, N‐terminally biotinylated peptides (Biomatik) (Table 1) in PBS with 10% glycerol, 0.005% tween, and 1 mM DTT were loaded onto SA sensors as above. After establishing baseline, sensors were exposed to serial dilutions of analyte MAP kinases ranging from 31 to 1000 nM. Peptide experiments were performed using parameters identical to the protein ligand experiments excepting the buffer was PBS with 10% glycerol, 0.005% tween, and 1 mM DTT throughout.
(§3) We tested both hypothesized interaction sites and the impact of nearby phosphorylation sites using: (a) a nonphosphorylated peptide corresponding to the putative NtMAP site (Fig. 1); (b) the identical peptide with S114 phosphorylated; (c) a nonphosphorylated peptide corresponding to the AI loop site; and (d) an identical peptide phosphorylated at the position corresponding to S633. The resultant sensorgrams are shown in Fig. 4 fit to global one‐state binding models to determine binding parameters. While there are complexities present in the data (see Discussion), a one‐state models fit very well to all peptide‐kinase curves. All three kinases bound both unphosphorylated peptides with submicromolar affinity that in most cases approximated the affinity observed for full‐length NOS3 reported above and in our prior report.

For a further test, the target named is T2, ERK2 (Rattus norvegicus, UniProt P63086).
T2 construct: His; host or cells: E. coli BL21(DE3) pLysS
T2 sequence (P63086 whole entry): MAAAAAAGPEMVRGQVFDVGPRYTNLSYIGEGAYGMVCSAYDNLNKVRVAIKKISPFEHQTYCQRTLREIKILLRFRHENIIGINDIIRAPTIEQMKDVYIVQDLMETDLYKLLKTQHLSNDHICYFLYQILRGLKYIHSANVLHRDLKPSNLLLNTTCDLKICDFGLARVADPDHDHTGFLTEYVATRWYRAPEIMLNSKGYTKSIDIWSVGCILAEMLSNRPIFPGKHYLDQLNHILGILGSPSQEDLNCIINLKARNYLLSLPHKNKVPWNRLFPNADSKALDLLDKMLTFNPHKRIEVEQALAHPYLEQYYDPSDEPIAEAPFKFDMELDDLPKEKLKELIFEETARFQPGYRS
The test can be described thus: BLI binding of biotinylated NOS3 peptides to ERK2. As to conditions: for Kd / koff / kon: BLI, global one-state fit; for Kd: inactive (unphosphorylated) ERK2 31-1000 nM, biotinylated peptide ligand, 25 °C, PBS, 10% glycerol, 0.005% tween, 1 mM DTT; for koff / kon: inactive ERK2, 25 °C, PBS buffer; for binding of phosphopeptide: BLI sensorgram, kinase analyte ERK2. How it is done: as §1, §2, §3

The next test concerns the target T3, JNK1α1 (Homo sapiens, UniProt P45983).
T3 construct: GST; host or cells: E. coli BL21(DE3) pLysS
The test is described as follows: BLI binding of biotinylated NOS3 peptides to JNK1α1. The conditions noted are these: for Kd / koff / kon: BLI, global one-state fit; for Kd: inactive (unphosphorylated) JNK1α1 31-1000 nM, biotinylated peptide ligand, 25 °C, PBS, 10% glycerol, 0.005% tween, 1 mM DTT; for koff / kon: inactive JNK1α1, 25 °C, PBS buffer; for binding of phosphopeptide: BLI sensorgram, kinase analyte JNK1α1. How it is done:
as §1, §2, §3
Background: In BLI a coated tip is dipped into the sample, and binding shifts an interference pattern.

For test [1], the system named is NOS3. The test is described as follows: NOS3 phosphorylation status in HMEC-1 cells. It is filed as cell-based, human. As to conditions: data not shown. Here is the method:
Human microvascular endothelial cells (HMEC‐1) (CRL‐3243, ATCC) were cultured in MCDB131 medium. HMEC‐1 cells were maintained as described by the ATCC in MCDB131 supplemented with 10% FBS, 1 µg·mL^−1 Hydrocortisone, 10 mM Glutamine, and 10 ng·mL^−1 Epidermal Growth Factor under an atmosphere of 5% CO2 at 37 °C.

Test [2] deals with NOS3. The test is described as follows: TCSPC fluorescence lifetime, conformation of NOS3. As to conditions: FMN excited at 473 nm, detected at 525 nm. Here is the method:
Time‐resolved intensity decays were recorded using time‐correlated single‐photon counting fluorescence lifetime spectrometry (TCSPC FLT) to determine whether phosphorylation by JNK1α1 changes the conformation of NOS3.

Test [3] deals with NOS3. The test can be described thus: Oxyhemoglobin assay of NO production by kinase-treated NOS3. Type of test: biochemical, human. The conditions noted are these: oxyHb assay, 2.5 µM NOS3 with ERK2 14 nM (N = 10), p38α 14 nM (N = 4), JNK1α1-GST 63 nM (N = 3) or PKA 14 nM (N = 4), 30 min; versus untreated NOS3. How it is done:
(§4) Active (HIS‐NOS3) was incubated alone or with individual kinases (ERK2, p38α, JNK1α1, and PKA) in 100 µL reaction buffer (20 mM HEPES, 0.5 mM DTT, 5 mM MgCl2, 0.5 mM ATP, and 10% glycerol at a pH of 7.4). The reactions were performed at 22‐25 °C for up to 1 h, and for the examination of nitric oxide activity, samples were incubated on ice for the immediate detection of NO via the oxyhemoglobin to methemoglobin assay (see below). For immunoblotting analysis to examine phosphorylation, kinase samples were quenched with 2× sample buffer spiked with 25 mM DTT and heated to 95 °C for 5 min. Boiled samples (at equal volumes) were electrophoresed and transferred to PDVF for immunoblot staining.
The oxyhemoglobin assay (oxyHb assay) is a spectroscopic method that measures the oxidative reaction of oxyhemoglobin at 421 nm (oxyHb) and methemoglobin (metHb) at 401 nm. Kinase assay reactions quenched on ice were used to measure NO synthesis and consumption. All oxyHb reactions were performed at 25 °C in a BioTek 96‐well UV‐visible spectrophotometer. Each reaction (100 µL total volume) was mixed with 40 µL of reaction buffer (1 μM FAD, 1 μM FMN, 10% glycerol, 12 nM BH4, 100 μM L‐arginine, 10 mM Tris/HCl, pH 7.5 at 25°, 250 μM CaCl2, 0.20 mg·mL^−1 BSA, 0.31 mg Hemoglobin, 7–10 U Superoxide Dismutase, 7–10 U Catalase, and 17 μg Calmodulin) and up to 40 µL (6–10 µg) of phosphorylated NOS3. Absorbance at 401 nm and 421 nm were read for 1 m at 15‐s intervals. To initiate the reaction, 20 µL of 200 mM NADPH reconstituted in Tris/HCl (1.4 M pH 7.5 at room temperature) was added. Measurements were recorded for 10 min at 15‐s intervals.
To calculate NOS3 activity, the change in absorbance/unit time was divided by the extinction coefficient (ε401‐421 = 77 200 M ^−1cm^−1 (ε401 = 38 600 M ^−1cm^−1)). This yielded NOS3 activity in units of molar change/unit time. Activity of kinase exposed NOS3 was compared to the NOS3 control activity (comparably treated NOS3 but not phosphorylated), and the data are presented as a percent of the control NOS3.

Test [4] concerns NOS3. The test is described as follows: In vitro kinase assay with NOS3, phospho-specific immunoblotting. Type of test: biochemical, human. The conditions noted are these: active kinases with NOS3, 5 and 60 min. How it is done: as §4
All samples were loaded at equal volumes on 3–8% gradient tris‐acetate gels. All gels were transferred to PVDF membranes and transferred for either 2 h at 40V or for 20V overnight. Membranes were blocked with one block (Li‐Cor Biosciences) for 30 m and incubated with respective antibodies (at manufacturers recommend concentrations for immunoblotting, 1 : 500 for the anti‐pS600‐NOS3) overnight at 4 °C. Blots were brought to RT for 30 m and washed 3× with 1X TBST for 10 m, probed with a fluorometric secondary antibody (Li‐Cor IRDye®) for 1 h, and washed before visualizing with a Li‐Cor Odyssey.

The next test concerns NOS1. The conditions noted are these: previous studies; ref [4]; cited from earlier work. An excerpt: While there is substantial nonspecific binding inherent in the NOS1 sample, it is quite clear that there is no observable specific binding. […] The NOS1 isoform lacks the pentabasic sequence in the autoinhibitory loop that we hypothe ...
The target of test [5] is NOS3. As to conditions: full-length NOS3; previously reported; ref [4]; cited from earlier work. From the text: While there is substantial nonspecific binding inherent in the NOS1 sample, it is quite clear that there is no observable specific binding. […] This was not surprising since others have qualitatively shown an interaction between NOS3 and JNK [10] and the MAP kinases have similarities in the requirements of binding to activators and substrates. Lack of binding to NOS1 by all three MAP kinases examined thus far strengthens the interpretation that NOS3 is a node for MAP kinase signaling, while NOS1 and NOS2 are not.

T1 sequence (Q16539 whole entry): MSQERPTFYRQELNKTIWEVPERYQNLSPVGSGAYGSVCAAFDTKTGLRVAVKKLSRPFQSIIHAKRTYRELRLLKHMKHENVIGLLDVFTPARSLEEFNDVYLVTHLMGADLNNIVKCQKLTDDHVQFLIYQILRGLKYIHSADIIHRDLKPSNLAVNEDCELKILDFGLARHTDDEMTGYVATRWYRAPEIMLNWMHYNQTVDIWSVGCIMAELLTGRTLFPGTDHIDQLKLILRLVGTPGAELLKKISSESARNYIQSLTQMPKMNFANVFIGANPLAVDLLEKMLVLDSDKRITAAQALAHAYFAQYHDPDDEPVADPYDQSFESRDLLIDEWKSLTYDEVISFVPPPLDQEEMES
T3 sequence (P45983 1-384 isoform P45983-2, species assumed): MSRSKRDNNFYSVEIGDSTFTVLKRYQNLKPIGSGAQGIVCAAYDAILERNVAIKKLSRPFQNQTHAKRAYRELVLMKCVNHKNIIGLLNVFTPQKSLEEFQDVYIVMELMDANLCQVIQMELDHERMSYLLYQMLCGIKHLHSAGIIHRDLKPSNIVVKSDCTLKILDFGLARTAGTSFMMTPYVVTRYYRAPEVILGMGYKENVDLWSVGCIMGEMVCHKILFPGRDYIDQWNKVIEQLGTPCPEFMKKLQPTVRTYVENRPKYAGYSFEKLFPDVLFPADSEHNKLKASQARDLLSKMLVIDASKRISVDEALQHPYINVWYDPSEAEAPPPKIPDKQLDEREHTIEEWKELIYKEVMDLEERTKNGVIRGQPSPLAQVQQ

At p38α, YKIRFNSISCSDPLVSSWRRKRKESSNTDSA [AI] showed a koff of 0.00096 s⁻¹ and a kon of 15900 M⁻¹ s⁻¹. In addition, on ERK2, binding was characterised by a dissociation constant (Kd) of 170 nM, the koff is 0.002 s⁻¹ and the kon is 12100 M⁻¹ s⁻¹. Also, at JNK1α1, binding was characterised by a dissociation constant (Kd) of 3 nM, the koff was found to be 0.00025 s⁻¹ and the kon is 84600 M⁻¹ s⁻¹.
On to “YKIRFNSISCSDPLVSSWRRKRKES*SNTDSA [AI with phosphorylated S633, AI loop peptide phosphorylated at the position corresponding to S633]”, for which the binding of phosphopeptide entry at p38α, on ERK2 and at JNK1α1 was “negligible binding” throughout.
“insulin: insulin, treatment of HMEC-1 cells”: in the test on NOS3 [1], the NOS3 phosphorylation status entry was “altered NOS3 phosphorylation status”.
Turning to Calmodulin [reference compound], the “conformation of NOS3 (fluorescence decay)” value with NOS3 [2] (NOS3 holoenzyme) was “produced a change in conformation indicative of active NOS3”. Besides, the “conformation of JNK1α1-treated NOS3 (fluorescence decay)” value in the test on NOS3 [2] (calmodulin on JNK1α1-treated NOS3) is “produced the same degree of shift (activation) in JNK1α1‐treated NOS3”.
Regarding “cAMP‐dependent protein kinase [PKA, reference compound]”, the “NO production / NOS3 activity” value in the test with NOS3 [3] was “increased production of NO; also recorded: increased activity”.
On to “mitogen‐activated protein kinase 14 [p38α]”, for which, in the test on NOS3 [4] (immunoblot with anti-pS114), the “phosphorylation of NOS3 at S114” value was “phosphorylates both residues; also recorded: easily detected when compared to ERK2”. The “phosphorylation of NOS3 at S600” value in the test with NOS3 [4] (immunoblot with anti-pS600) is listed as “phosphorylates both residues; also recorded: robust when compared to JNK1α1”. Further, the “NO production / NOS3 activity” value in the test on NOS3 [3] is “do not significantly change NO production; also recorded: did not alter in vitro NOS3 activity”. The “binding to NOS1” value in the test on NOS1 is recorded as “no binding to NOS1”. In addition, on NOS3 [5], the Kd was 80 nM.
With Epidermal Growth Factor [EGF], the NOS3 phosphorylation status entry with NOS3 [1] was “altered NOS3 phosphorylation status”.
On p38α, `CC(C)C[C@H](NC(=O)[C@H](CS)NC(=O)[C@H](CCCNC(=N)N)NC(=O)[C@H](CCCNC(=N)N)NC(=O)[C@@H]1CCCN1C(=O)[C@@H](NC(=O)[C@@H](N)CS)[C@@H](C)O)C(=O)NCC(=O)N[C@@H](CO)C(=O)N[C@@H](CC(C)C)C(=O)N[C@H](C(=O)N[C@@H](Cc1ccccc1)C(=O)N1CCC[C@H]1C(=O)N[C@@H](CCCNC(=N)N)C(=O)N[C@@H](CCCCN)C(=O)N[C@@H](CC(C)C)C(=O)N[C@@H](CCC(N)=O)C(=O)NCC(=O)N[C@@H](CCCNC(=N)N)C(=O)N1CCC[C@H]1C(=O)N[C@@H](CO)C(=O)N1CCC[C@H]1C(=O)NCC(=O)N1CCC[C@H]1C(=O)N1CCC[C@H]1C(=O)N[C@@H](C)C(=O)O)C(C)C` [NtMAP] (H-CTPRRCLGSLVFPRKLQGRPSPGPPA-OH) gave a koff of 0.00053 s⁻¹ and an association rate constant (kon) of 17300 M⁻¹ s⁻¹. In addition, on ERK2, the Kd was 940 nM, the koff turned out to be 0.00623 s⁻¹ and the kon is 6600 M⁻¹ s⁻¹. On JNK1α1, this compound had a Kd of 38 nM, a koff of 0.00054 s⁻¹ and a kon of 14100 M⁻¹ s⁻¹.
For the compound “CTPRRCLGSLVFPRKLQGRPS*PGPPA [NtMAP with phosphorylated S114, NtMAP peptide with S114 phosphorylated]”, the binding of phosphopeptide result on p38α, on ERK2 and on JNK1α1 was “negligible binding” throughout.

One may read the koff as the first-order rate constant of dissociation. Read a low koff as a long-lived complex. Usually kon stands for the second-order rate constant of association. A lower kon goes with slower complex formation. As usually defined, the Kd is the free concentration of one partner at which half of the binding sites on the other are occupied at equilibrium, for simple one-to-one binding.
